Assay results reported in patent US20250207173A1, “REPORTER CELL FOR ASSESSING DDX3 HELICASE ACTIVITY” (Nanyang Technological University, priority 2023, published 2025).
“Also recorded” adds a separate entry of the source.

Key:
[1] = tested on: DDX3; test: ICD-Helicase luciferase reporter assay (Rac1-FLuc / DvL2-FLuc reporter plasmids) in 293T cells; format: cell-based, human; conditions: for luciferase (luminescent) signals of Rac1-FLuc or DvL2-FLuc reporter cells: 293T cells transfected with Rac1-FLuc or DvL2-FLuc reporter plasmids, RK-33 0.5 to 2 μM vs vehicle (DMSO), cycloheximide as inhibitory control
Procedure: A total of 1.2×10^5 sgCTL or sgDDX3X reporter cells (Rac1-FLuc or DvL2-FLuc) were seeded into wells of a 24-well plate to allow cells to adhere for 24 h. Cells were pre-treated with increasing concentrations of a non-specific DDX3 inhibitor, RK-33 (0.5 μM, 1 μM, or 2 μM) for 3 h before transiently expressing the reporter plasmids into sgCTL and sgDDX3X cells for 16 h. Half of the cells were lysed in 1× cell culture lysis buffer (Promega #E1500) and bioluminescence was measured on a white bottom 96-well plate using luciferase assay system (Promega #E4030) by performing 2 sec measurement delay followed by a 10 sec measurement read. The remaining half of the cells were processed on flow-cytometry to determine the percentage of AcGFP^+ cells, to account for variation in transfection efficiency. […] Cycloheximide was used as a positive control for translational inhibition. Data represent three independent experiments and values in the bars are mean±SEM. *, p<0.05; ****, p<0.0001; ns, non-significant.
Cell transfection: 293T cells were seeded in 12 well plate (1.5×10^5 cells per well) a day prior to transfection. Cells were transfected with 1 μg of plasmids using Lipofectamine 2000 (ThermoFisher Scientific #11668019) as per manufacturer's recommendations.
Luciferase assay: Cells were lysed in luciferase cell culture lysis buffer (Promega #E1500) before measuring bioluminescence in a clear bottom 96-well plate using luciferase assay system (Promega #E4030) as per manufacturer's instructions. Relative luciferase activity was determined by subtracting luminescence values to blank and normalizing to untreated samples. Cycloheximide (Sigma #01810) was used as a positive control for translation inhibition at 1 μg/mL and RK-33 (Selleck #S8246) was used as a positive control for chemical inhibition of DDX3 at 3 μM.
The helicase function of the DDX3X and DDX3Y proteins regulates mRNA translation by unwinding of the complex 5′ untranslated region (5′-UTR) secondary structure. Two unique 5′-UTR structures were designed, Rac1 5′-UTR and DvL2 5′-UTR (i.e. short DVL2), known to be regulated by DDX3X and DDX3Y. The 5′-UTR segments were placed upstream of the luciferase gene (from the firefly Photinus pyralis) driven by a constitutively active human cytomegalovirus promoter (FIG. 1A-E). Luciferase emits bioluminescence signals proportional to its levels of expression, which served as a readout for helicase unwinding activity in ICD-Helicase assays. The reporter plasmids (Rac1-Fluc or DvL2-Fluc) were then transiently transfected into 293T cells. A transfection efficiency of more than 80% was obtained in all the experiments (FIG. 2). The selection of this cell line was for three main reasons. […] Second, 293T cells can tolerate knock-out (KO) or nearly complete knock-down of DDX3X expression. […]

[2] = tested on: 293T cells; test: Annexin V-FITC apoptosis/cell death assay; format: cell-based, human; conditions: RK-33 treatment
Procedure: (§1) Staurosporine (STS) was used as a positive kill control. […] Cells were treated with STS as a kill control. Bar chart represents mean±SEM of 3 independent experiments.

[3] = tested on: 293T cells; test: MTS-based viability assay of reporter cells; format: cell-based; conditions: 293T reporter cells (sgCTL and sgDDX3X); RK-33 0.5, 1 or 2 μM; normalized against vehicle (DMSO)
Procedure: as §1

Compound | luciferase (luminescent) signals of Rac1-FLuc or DvL2-FLuc reporter cells [1] | induction of apoptosis/cell death [2] | luciferase activity ([1]; sgCTL 293T cells with normal endogenous DDX3, RK-33 0.5, 1 or 2 μM, 3 h pre-treatment) | luciferase activity (response to inhibitor) ([1]; sgDDX3X (DDX3X knock-out) 293T cells expressing Rac1-FLuc or DvL2-FLuc construct, RK-33 0.5, 1 or 2 μM) | cell viability [3]
C[C@@H]1C[C@@H]([C@H](O)CC2CC(=O)NC(=O)C2)C(=O)[C@@H](C)C1 [cycloheximide] | significantly inhibited |  |  |  | 
RK-33 | significantly inhibited; also recorded: dose-dependently inhibited | no major change in cell viability or induction of apoptosis/cell death | dose-dependent reduction in luciferase activity | did not respond | no major change in cell viability
